From patent publication US11266650B2, “Pharmaceutical composition for preventing and treating nonalcoholic steatohepatitis, hepatic fibrosis, and liver cirrhosis, comprising adenosine derivatives” (FUTURE MEDICINE CO., LTD., priority 2016, dated 2022) come the findings set out here.

Data set [1] deals with T1, human A1 adenosine receptor (hA1) (Homo sapiens, UniProt P30542).
T1 construct: expressed in transfected cells; host or cells: CHO cells (ATCC No. CCL-61)
T1 sequence (P30542 1-326): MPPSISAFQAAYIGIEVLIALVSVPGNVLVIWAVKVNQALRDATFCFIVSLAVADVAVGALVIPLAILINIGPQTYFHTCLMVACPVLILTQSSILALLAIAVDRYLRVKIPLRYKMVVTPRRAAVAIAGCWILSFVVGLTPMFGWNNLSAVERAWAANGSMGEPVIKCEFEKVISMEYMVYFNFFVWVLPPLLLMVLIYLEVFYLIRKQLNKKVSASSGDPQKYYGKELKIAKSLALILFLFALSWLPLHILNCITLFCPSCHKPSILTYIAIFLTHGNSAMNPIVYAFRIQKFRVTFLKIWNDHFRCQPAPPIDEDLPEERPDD
In words: Binding affinity for human A1 adenosine receptor expressed in CHO cells ([3H]CCPA). The following applies: 10 μM (table footnote); read-out: percentage inhibition of specific binding, hA1.
Experimental: (§1) CHO cells (ATCC No. CCL-61), in which A1 and A3 adenosine receptors were expressed, were cultured in F-12 media (Gibco, U.S.A.) supplemented with 10% fetal bovine serum (FBS) and penicillin/streptomycin (100 units/ml and 100 g/ml), at 37° C. in a 5% CO2 atmosphere. […] Incubation for 1 hr in a 37° C. incubator was followed by rapid filtration in a vacuum using a cell collector (TOMTEC, U.S.A.). Subsequently, the test tubes were washed three times with 3 ml of the buffer before radioactivity was measured using a γ-counter. […] Ki for binding affinity was determined by subtracting the non-specific binding value from the total binding value. On the basis of the specific binding values, the samples were analyzed for binding affinity to various adenosine receptors.

Data set [2] deals with T2, human A2A adenosine receptor (hA2A) (Homo sapiens, UniProt P29274).
T2 construct: expressed in transfected cells; host or cells: HEK 293 cells
T2 sequence (P29274 whole entry): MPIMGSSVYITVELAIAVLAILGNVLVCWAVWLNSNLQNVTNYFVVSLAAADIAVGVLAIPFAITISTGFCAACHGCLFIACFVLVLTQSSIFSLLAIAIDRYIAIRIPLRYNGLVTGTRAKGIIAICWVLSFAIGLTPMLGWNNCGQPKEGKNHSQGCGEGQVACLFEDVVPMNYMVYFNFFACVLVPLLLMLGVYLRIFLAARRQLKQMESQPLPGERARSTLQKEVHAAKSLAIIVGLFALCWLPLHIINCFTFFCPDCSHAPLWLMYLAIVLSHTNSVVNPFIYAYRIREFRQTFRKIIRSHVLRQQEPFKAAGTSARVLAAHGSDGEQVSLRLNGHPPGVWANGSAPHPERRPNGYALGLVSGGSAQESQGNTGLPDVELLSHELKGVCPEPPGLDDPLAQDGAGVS
In words: Binding affinity for A2A adenosine receptor expressed on HEK 293 cell ([3H]CGS-21680). The conditions noted are these: 10 μM (table footnote); read-out: percentage inhibition of specific binding, hA2A.
Experimental: Each of the compounds synthesized in the examples was measured for IC50 at least 6 different concentrations, and the measurements were analyzed using SigmaPlot software to determine Ki values.

The test system of data set [3] is TPA-induced inflammation of the mouse ear. In words: Anti-inflammatory activity, TPA-treated mouse ear. Format: in vivo, ICR mice. The conditions noted are these: for percentage of inflammation inhibition: topical, mouse ear; for anti-inflammatory activity relative to Examples 2 to 4: 0.5% in acetone, on the basis of inhibition percentage. Here is the method: The adenosine derivatives of the present invention were examined for anti-inflammatory activity in the following animal test. Seven-week-old male ICR mice were treated with TPA (12-O-tetradecanoylphorbol-13-acetate, 20 μl) in the right ear. […] Hydrocortisone was used at the same concentration as a control.
6 hrs after treatment with TPA, the mice were secondarily treated with the adenosine derivatives of the present invention. 24 hrs after TPA treatment, test animals were euthanized using a cervical dislocation method. Samples were obtained from the right ear using a 6 mm diameter punch. The activity was observed by measuring the ear sample using a microbalance. Percentages of inhibition were calculated using the following Equation 1. The compositions and amounts used in these experiments are summarized in Tables 2 to 5 and the anti-inflammatory activities thereof are shown in FIGS. 2 to 5.

In data set [4] the target is T3, human A2B adenosine receptor (Homo sapiens, UniProt P29275).
T3 sequence (P29275 1-332): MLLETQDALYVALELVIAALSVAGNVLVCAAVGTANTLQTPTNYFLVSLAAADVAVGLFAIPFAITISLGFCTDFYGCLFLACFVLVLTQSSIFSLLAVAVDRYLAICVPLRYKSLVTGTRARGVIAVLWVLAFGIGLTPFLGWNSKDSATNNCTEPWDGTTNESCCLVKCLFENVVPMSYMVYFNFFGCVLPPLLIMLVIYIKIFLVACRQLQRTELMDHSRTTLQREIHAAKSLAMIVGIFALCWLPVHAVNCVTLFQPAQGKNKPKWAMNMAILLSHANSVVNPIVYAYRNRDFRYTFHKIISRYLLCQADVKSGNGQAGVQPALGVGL
In words: Agonist or antagonist activity on human A2B adenosine receptor. Format: biochemical.

Data set [5] addresses T4, human A3 adenosine receptor (Homo sapiens, UniProt P0DMS8).
T4 construct: expressed in transfected cells; host or cells: CHO cells
T4 sequence (P0DMS8 1-318): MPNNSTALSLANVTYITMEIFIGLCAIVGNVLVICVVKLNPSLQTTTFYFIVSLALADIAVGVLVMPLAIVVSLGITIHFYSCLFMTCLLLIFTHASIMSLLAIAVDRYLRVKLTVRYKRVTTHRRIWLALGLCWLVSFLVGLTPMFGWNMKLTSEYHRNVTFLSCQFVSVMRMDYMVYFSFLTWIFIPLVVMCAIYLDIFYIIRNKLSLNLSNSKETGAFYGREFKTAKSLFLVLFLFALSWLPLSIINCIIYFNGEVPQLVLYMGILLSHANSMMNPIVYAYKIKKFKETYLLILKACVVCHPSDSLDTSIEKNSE
In words: Antagonism of Cl-IB-MECA and cAMP inhibition in CHO cells expressing human A3 adenosine receptor. Type of data set: cell-based. The conditions noted are these: CHO cells expressing hA3 AR, various concentrations.

In data set [6] the target is T5, human A3 adenosine receptor (hA3 AR) (Homo sapiens, UniProt P0DMS8).
T5 construct: expressed in transfected cells; host or cells: CHO cells (ATCC No. CCL-61)
T5 sequence (P0DMS8 1-318): T4 sequence (P0DMS8 1-318)
In words: Binding affinity for human A3 adenosine receptor expressed in CHO cells ([125I]AB-MECA). The conditions noted are these: for Ki: ± SEM, [125I]AB-MECA, CHO cells.
Experimental: as §1

Data set [7] concerns NASH- or NAFLD-induced mice. In words: Efficacy test on NASH or NAFLD and liver fibrosis in NASH- or NAFLD-induced mice. Format: in vivo. The following applies: oral once a day, 6 to 10 weeks of age; vs negative control; HE staining. The procedure:
As a comparison group, eight normal mice were given no treatment until 10 weeks of age. As a positive control group, eight NASH- or NAFLD-induced mice were orally administered with 10 mg/kg of telmisartan (i.e., a hypertension medication) once a day for six to 10 weeks of age. As a negative control group, eight NASH- or NAFLD-induced mice were orally administered with only 10 mL/kg of 0.5% methyl cellulose (i.e., a vehicle) once a day for 6 to 10 weeks of age.
Then, for the livers of the experimental animals at 10 weeks of age, the degree of steatosis, inflammation and ballooning were measured using HE staining, and the area of fibrosis was observed and measured using Sirius red staining.

[8] abbreviates: 0.5% in distilled water:acetone (1:4).

In the case of `O[C@@H]1[C@H](O)CS[C@H]1n1cnc2c(NCc3cccc4ccccc34)nc(Cl)nc21` [Example 8, (2R,3R,4S)-2-(2-Chloro-6-(naphthalen-1-ylmethylamino)-9H-purin-9-yl)tetrahydrothiophen-3,4-diol], the melting point is 226.3 °C (dec.). The inhibition at 10 µM in data set [1] was found to be 22%. Moreover, the inhibition in data set [2] was -8.3%. In data set [3] (setting [8]), the “percentage of inflammation inhibition” value was 53%.
As to `O[C@@H]1[C@H](O)CS[C@H]1n1cnc2c(NCc3cccc(I)c3)nc(Cl)nc21` [Example 4, (2R,3R,4S)-2-(2-Chloro-6-(3-iodobenzylamino)-9H-purin-9-yl)tetrahydrothiophen-3,4-diol], the “agonist or antagonist on human A2B adenosine receptor” value in data set [4] is given as “not observed as an agonist or antagonist”. For the same molecule, the “inhibition of the agonist effect of Cl-IB-MECA” value in data set [5] is given as “inhibited in a dose-dependent manner”.
In the case of `CNc1nc(Cl)nc2c1ncn2[C@@H]1SC[C@H](O)[C@@H]1O` [Example 10, 2-(2-Chloro-6-methylamino-purin-9-yl)(2R,3 S,4R)-tetrahydrothiophen-3,4-diol], in data set [1], the inhibition at 10 µM stood at 55.4 ± 1.8%. Also, the inhibition in data set [2] is 45 ± 1.4%. The molecule further came in with a Ki in data set [6] of 0.00369 ± 0.00025 µM.
Turning to `COc1ccc(Cl)cc1CNc1nc(Cl)nc2c1ncn2[C@@H]1SC[C@@H](O)[C@H]1O` [Example 6, (2R,3R,4S)-2-(2-Chloro-6-(5-chloro-2-methoxybenzylamino)-9H-purin-9-yl)tetrahydrothiophen-3,4-diol], the melting point was in the range of 188.8 to 189.8 °C. In addition, the inhibition at 10 µM in data set [1] stood at 23.8%. The “anti-inflammatory activity relative to Examples 2 to 4” value in data set [3] was “four or more times that of the compounds of Examples 2 to 4”.
With `COc1ccccc1CNc1nc(Cl)nc2c1ncn2[C@@H]1SC[C@@H](O)[C@H]1O` [Example 7, (2R,3R,4S)-2-(2-chloro-6-(2-methoxybenzylamino)-9H-purin-9-yl)tetrahydrothiophen-3,4-diol], the melting point was found to be 188 °C. Besides, the inhibition at 10 µM in data set [1] worked out at 9.4%. In addition, the inhibition in data set [2] worked out at 17.5%.
In the case of `OC1CO[C@@H](n2cnc3c(NCc4cccc(I)c4)nc(Cl)nc32)C1O` (stereo partly drawn) [Example 16, (2R,3R,4R)-2-(6-(3-iodobenzylamino)-2-chloro-9H-purin-9-yl)tetrahydrofuro-3,4-diol], the melting point lay within 195.5 to 195.8 °C. Moreover, the inhibition at 10 µM in data set [1] worked out at 37.7%. The inhibition in data set [2] turned out to be 28.6%. Besides, the Ki in data set [6] came to 0.0429 ± 0.0089 µM. For the same molecule, the “percentage of inflammation inhibition” value in data set [3] (0.5% in DMSO:acetone (1:9)) stood at 79%.
In turn, `O[C@@H]1[C@H](O)CS[C@H]1n1cnc2c(NCc3cccc(Br)c3)ncnc21` [Example 13, (2R,3R,4S)-2-(6-(3-bromobenzylamino)-9H-purin-9-yl)tetrahydrothiophen-3,4-diol] had a melting point of 183 to 184 °C.
For `CCCc1nc2c(C)cc(-c3nc4ccccc4n3C)cc2n1Cc1ccc(-c2ccccc2C(=O)O)cc1` [telmisartan], the “steatosis score of the liver” value in data set [7] is on record as “no significant decrease in steatosis was observed”.
`O=C(O)c1cccc(CNc2nc(Cl)nc3c2ncn3[C@@H]2SC[C@@H](O)[C@H]2O)c1` [Example 9, 3-((2-chloro-9-((2R,3R,4S)-3,4-dihydroxytetrahydrothiophen-2-yl)-9H-purine-6-ylamino)methyl)benzoic acid] returned a melting point of 254 to 256.9 °C. For the same molecule, the inhibition at 10 µM in data set [1] is 13.1%. Besides, the inhibition in data set [2] is -0.18%. Also, the inhibition at 10 µM in data set [6] (10 μM (table footnote), read-out: percentage inhibition of specific binding, hA3) amounted to 41.5%.
`O[C@@H]1[C@H](O)CS[C@H]1n1cnc2c(NCc3cccc(I)c3)ncnc21` [Example 14, (2R,3R,4S)-2-(6-(3-Iodobenzylamino)-9H-purin-9-yl)tetrahydrothiophen-3,4-diol]: the melting point was 198.8 to 199.8 °C.
Take `O[C@@H]1[C@H](O)CS[C@H]1n1cnc2c(NCc3ccccc3Cl)nc(Cl)nc21` [Example 5, (2R,3R,4S)-2-(2-Chloro-6-(2-chlorobenzylamino)-9H-purin-9-yl)tetrahydrothiophen-3,4-diol]: the melting point was 198.7 to 199.7 °C. In addition, the inhibition in data set [1] came out at 12.8%. For the same molecule, the “percentage of inflammation inhibition” value in data set [3] (setting [8]) is listed as 17%.
The molecule `O[C@@H]1[C@H](O)CS[C@H]1n1cnc2c(NCc3cccc(F)c3)nc(Cl)nc21` [Example 1, (2R,3R,4S)-2-(2-Chloro-6-(3-fluorobenzylamino)-9H-purin-9-yl)tetrahydrothiophen-3,4-diol] registered a melting point of 183.2 to 183.5 °C. For the same molecule, the inhibition at 10 µM in data set [1] was determined as 19.8%. For the same molecule, in data set [2], the inhibition is 47.6%. Also, in data set [3], the “anti-inflammatory activity relative to Examples 2 to 4” value is given as “four or more times that of the compounds of Examples 2 to 4”.
Consider `O[C@@H]1[C@H](O)CO[C@H]1n1cnc2c(NCc3cccc(Br)c3)nc(Cl)nc21` [Example 15, (2R,3R,4R)-2-(6-(3-bromobenzylamino)-2-chloro-9H-purin-9-yl)tetrahydrofuran-3,4-diol], for which the melting point was in the range of 181.5 to 181.7 °C. Besides, the inhibition at 10 µM in data set [1] turned out to be 39.8%. Moreover, the inhibition in data set [2] is 22.8%. Moreover, the “percentage of inflammation inhibition” value in data set [3] (0.5% in DMSO:acetone (1:9)) worked out at 59%.
`O[C@@H]1[C@H](O)CS[C@H]1n1cnc2c(NCc3cccc(Br)c3)nc(Cl)nc21` [Example 3, (2R,3R,4S)-2-(2-Chloro-6-(3-bromobenzylamino)-9H-purin-9-yl)tetrahydrothiophen-3,4-diol] came in with a melting point of 184 to 185 °C. Moreover, in data set [1], the inhibition at 10 µM was 34.2%. The inhibition in data set [2] is 18.4%.
